Data set [1] concerns cystinosis patients. The note with it: cited from earlier work.
Data set [2] addresses MMP-9 (Homo sapiens, UniProt P14780). Description: Breakdown/inhibition of MMP-9 by cysteamine analyzed by zymography. The note with it: Michaelis-Mentin kinetics, FIG. 1. It is filed as biochemical. The text has this: FIG. 1 is a table illustrating inhibition of MMP-9 by cysteamine.
FIG. 1 illustrates the result of a laboratory test showing the breakdown of MMP-9 as analyzed by zymography. Because enzymes are structure specific, it can be inferred that there is inhibition of MMP-9 by cysteamine. It is believed that cysteamine inactivates MMP by breaking an important sulfur bond, causing the enzyme to unfold.

The test system of data set [3] is pre-renal transplant cystinotics. The note with it: cited from earlier work.

Here are results for two molecules from patent publication US7652070B2, “Treatment method for MMP-implicated pathologies” (priority 2007, dated 2010).

As a reminder, the Ki is the dissociation constant of the complex between target and ligand, obtained from inhibition or displacement. High values mean a looser hold on the target, low ones a stronger hold on the target.

Sequence of MMP-9 (P14780 94-707): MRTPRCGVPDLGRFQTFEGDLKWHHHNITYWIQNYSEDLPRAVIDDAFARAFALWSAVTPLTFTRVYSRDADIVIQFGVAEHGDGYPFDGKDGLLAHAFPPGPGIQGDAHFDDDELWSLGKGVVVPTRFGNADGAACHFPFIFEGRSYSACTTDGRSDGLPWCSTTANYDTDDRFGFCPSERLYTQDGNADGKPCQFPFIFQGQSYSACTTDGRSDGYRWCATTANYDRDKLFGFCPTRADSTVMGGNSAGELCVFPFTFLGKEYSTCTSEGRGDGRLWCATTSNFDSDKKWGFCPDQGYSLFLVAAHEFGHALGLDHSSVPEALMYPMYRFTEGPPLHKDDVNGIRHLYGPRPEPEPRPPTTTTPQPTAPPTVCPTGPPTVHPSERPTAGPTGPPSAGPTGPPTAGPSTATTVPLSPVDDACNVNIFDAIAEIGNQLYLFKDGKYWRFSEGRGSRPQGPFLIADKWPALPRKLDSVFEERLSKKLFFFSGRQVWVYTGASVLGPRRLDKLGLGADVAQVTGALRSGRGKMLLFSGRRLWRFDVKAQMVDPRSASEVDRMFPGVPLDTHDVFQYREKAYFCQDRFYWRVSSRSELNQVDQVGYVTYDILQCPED

`Cl.NCCS` [Cysteamine {HCl}]: the “efficacy of eye drop concentration” value in data set [1] (concentration 0.1%, cystinosis patients) is given as “effective”. Besides, in data set [1] (eye drop 0.5%, preserved with benzalkonium, up to 12 times per day, slight burning sensation possible), the “toxicity of eye drops” value is “no toxicity has not been observed”.
Consider `NCCS` [cysteamine, Cysteamine (HSCH2CH2NH2)], for which the Ki in data set [2] worked out at 530 ± 140 µM. Moreover, in data set [3], the “effect of cysteamine therapy on growth and renal function” value was “improved growth and stabilized renal function”; the “toxicity of cysteamine therapy” value is reported as “without substantial toxicity”.
